Test results published in paper PMC3320663 (Chemmedchem, 2011).

What was measured:
[1] = tested on: TbTryS overexpressing (OE) cell line; settings: read-out: EC50 OE cell line; cited from earlier work
[2] = tested on: trypanothione levels in T. brucei parasites; settings: of wild-type levels; 2×EC50 for 72 h; cited from earlier work
[3] = target: T1, TbTryS (Trypanosoma brucei, UniProt Q586P2); assay: Trypanothione synthetase; format: biochemical; settings: for LE (ligand efficiency): calculated as −0.6×ln(IC50)/(heavy atom count)
T1 sequence (Q586P2 1-627): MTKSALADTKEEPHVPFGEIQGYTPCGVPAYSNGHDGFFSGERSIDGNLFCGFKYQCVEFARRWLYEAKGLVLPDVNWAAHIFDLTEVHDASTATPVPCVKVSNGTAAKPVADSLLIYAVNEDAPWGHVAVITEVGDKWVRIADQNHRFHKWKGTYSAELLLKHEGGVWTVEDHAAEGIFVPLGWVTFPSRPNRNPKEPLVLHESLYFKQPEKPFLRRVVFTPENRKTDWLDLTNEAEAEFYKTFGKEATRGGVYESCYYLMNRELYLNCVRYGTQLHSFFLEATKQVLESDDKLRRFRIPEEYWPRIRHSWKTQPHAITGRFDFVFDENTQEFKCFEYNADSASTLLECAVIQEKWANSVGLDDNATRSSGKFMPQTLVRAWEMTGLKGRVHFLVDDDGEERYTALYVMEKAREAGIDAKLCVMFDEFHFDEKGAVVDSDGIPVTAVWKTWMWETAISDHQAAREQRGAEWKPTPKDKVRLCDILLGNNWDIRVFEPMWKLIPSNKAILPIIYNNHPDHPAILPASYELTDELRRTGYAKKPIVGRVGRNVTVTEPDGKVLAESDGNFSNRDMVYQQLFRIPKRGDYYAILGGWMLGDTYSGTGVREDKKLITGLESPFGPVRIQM

[4] = tested on: TbTryS single knockout (SKO) cell line; settings: read-out: EC50 SKO cell line; cited from earlier work
[5] = tested on: wild-type T. brucei cells; settings: read-out: EC50 wild-type cell line; cited from earlier work
[6] = Human cell counter-screen proliferation assay; format: cell-based; settings: MRC5 fibroblasts
[7] = tested on: bloodstream form T. brucei; assay: Trypanosomal cell proliferation assay; format: cell-based; settings: Trypanosoma brucei, read-out: Tb EC50

| SMILES | EC50 [1] [µM] | trypanothione levels [2] [%] | in vitro enzyme potency improved over the best HTS hits [3] [fold] | improvement in potency over the analogous piperazines ([3]; 83 vs 90, 84 vs 80) [fold] | LE (ligand efficiency) [3] | EC50 [4] [µM] | EC50 [5] [µM] | EC50 [6] [µM] | EC50 [7] [µM] | IC50 ([3]; TbTryS IC50) [nM] | IC50 ([3]; TbTryS IC50, values in running text) [nM] |
| --- | --- | --- | --- | --- | --- | --- | --- | --- | --- | --- | --- |
| CN(C)CCCNC(=O)Cn1nc(-c2cccc(F)c2)c2ccccc21 [Compound 84, N-(3-(Dimethylamino)propyl)-2-(3-(3-fluorophenyl)-1H-indazol-1-yl)acetamide] | 23.3 | < 10 | > 10 | 18 | 0.39 | 1.2 | 7.1 | 20 | 5.4 | – | – |
| O=C(Cn1nc(-c2cccc(F)c2)c2ccccc21)N1CCCCC1 [Compound 89, 2-(3-(3-Fluorophenyl)-1H-indazol-1-yl)-1-(piperidin-1-yl)ethanone] | 44.5 | < 10 | – | – | 0.38 | 6.9 | 20.4 | > 50 | 5.1 | 140 | 135 |
